The source of these data is patent US4950659A, “16,17-acetalsubstituted androstane-17β-carboxylic acid esters prossessing high binding affinity to the glucocorticosteroid receptor” (Aktiebolaget Draco, priority 1985, dated 1990).

Molecules are shown by their SMILES.

This test addresses T1, glucocorticoid receptor (Rattus norvegicus, UniProt P06536).
T1 construct: The thymus was removed and put into ice-cold saline; from tissue; host or cells: thymus of male Sprague-Dawley rats, 20,000×g supernatant of homogenate
T1 sequence (P06536 1-795): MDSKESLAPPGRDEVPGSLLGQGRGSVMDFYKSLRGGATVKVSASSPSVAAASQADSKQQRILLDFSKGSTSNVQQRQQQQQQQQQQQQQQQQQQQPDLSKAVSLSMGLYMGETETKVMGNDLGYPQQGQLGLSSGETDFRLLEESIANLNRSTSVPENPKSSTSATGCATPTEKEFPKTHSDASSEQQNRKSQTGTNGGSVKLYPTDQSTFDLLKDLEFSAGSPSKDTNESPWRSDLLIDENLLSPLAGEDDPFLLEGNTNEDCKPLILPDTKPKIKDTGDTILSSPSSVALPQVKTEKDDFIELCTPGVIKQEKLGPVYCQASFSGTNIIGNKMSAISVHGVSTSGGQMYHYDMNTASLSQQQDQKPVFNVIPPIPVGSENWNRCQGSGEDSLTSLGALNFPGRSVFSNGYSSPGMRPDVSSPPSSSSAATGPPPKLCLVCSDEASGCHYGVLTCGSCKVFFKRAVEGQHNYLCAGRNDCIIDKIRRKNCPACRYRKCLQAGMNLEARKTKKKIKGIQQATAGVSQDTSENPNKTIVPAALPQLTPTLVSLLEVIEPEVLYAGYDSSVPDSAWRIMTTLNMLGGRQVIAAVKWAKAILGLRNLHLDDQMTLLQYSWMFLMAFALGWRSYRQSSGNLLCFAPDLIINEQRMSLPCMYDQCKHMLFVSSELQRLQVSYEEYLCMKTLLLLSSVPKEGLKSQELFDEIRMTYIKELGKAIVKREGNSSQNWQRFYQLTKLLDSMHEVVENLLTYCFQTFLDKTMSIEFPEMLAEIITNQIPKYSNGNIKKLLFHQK
In words: Relative binding affinity to the glucocorticoid receptor: competition with 3H-labelled dexamethasone in rat thymus 20,000×g supernatant. The following applies: curves compared at the 50% specific binding level of [3H]dexamethasone, referenced to budesonide, assigned RBA = 1, about 24 h at 0° C. The method, then:
All steroids according to the present invention are physiologically active compounds. The affinity of the novel androstane-17β-carboxylic acid esters to the glucocorticoid receptor has been used as a model for determination of the anti-inflammatory potency.
Male Sprague-Dawley rats, one to two months of age, were used throughout the investigation. The thymus was removed and put into ice-cold saline. The tissue was homogenized in a Potter Elvehjem homogenizer in 10 ml of a buffer containing 20 mM Tris, pH 7.4, 10% (w/v) glycerol, 1 mM EDTA, 20 mM NaMoO4, 10 mM mercaptoethanol. The homogenate was centrifuged for 15 min at 20,000×g. Portions of the 20,000×g supernatant (230 μl) were incubated for about 24 h at 0° C. with 100 μl phenylmethylsulphonylfluoride (an esterase inhibitor, final conc. 0.5 mM). 20 μl unlabelled competitor and 50 μl ^3 H-labelled dexamethasone (final conc. […]). Bound and free steroid were separated by incubating the mixture with 60 μl 2.5% (w/v) charcoal and 0.25% (w/v) dextran T70 suspension in 20 mM Tris, pH 7.4, 1 mM EDTA, and 20 mM NaMoO4 for 10 min at 0° C. Following a centrifugation at 500×g for 10 min, 230 μl or the supernatant was counted in 10 ml Insta-Gel in a Packard scintillation spectrophotometer. The supernatants were incubated with (a) [^3 H]dexamethasone alone, (b) [^3 H]dexamethasone plus 1000 fold excess of unlabelled dexamethasone and (c) [^3 H]dexamethasone plus 0.03-300 fold "excess" of competitor. The nonspecific binding was determined when 1000 fold excess of unlabelled dexamethasone was added to [^3 H]-labelled dexamethasone.
The radioactivity bound to the receptor in the presence of competitor divided by the radioactivity bound to the receptor in the absence of competitor multiplied by 100 gives the percentage specific binding of labelled dexamethasone. For each concentration of a competitor the percentage specifically bound radioactivity is plotted against the log of concentration of competitor. The curves are compared at the 50% specific binding level and referenced to budesonide, which is assigned a relative binding affinity (RBA) of 1.
As for `CCOC(=O)OC(C)OC(=O)C12OC(C)(C)OC1CC1C3CC(F)C4=CC(=O)C=CC4(C)C3(F)C(O)CC12C` (single isomer, unassigned) [Example 4 epimer B, 1'-Ethoxycarbonyloxyethyl 6α,9α-difluoro-11β-hydroxy-16α,17α-[(1-methylethylidene)bis(oxy)]androsta-1,4-diene-3-one-17β-carboxylate], the “relative binding affinities (RBA) to the glucocorticoid receptor” value (shortened to “relative binding affinities (RBA)”) is 0.30.

`CC(=O)OC(C)OC(=O)C12OC(C)(C)OC1CC1C3CC(F)C4=CC(=O)C=CC4(C)C3(F)C(O)CC12C` (single isomer, unassigned) [Example 5 epimer B, 1'-Acetoxyethyl 6α,9α-difluoro-11β-hydroxy-16α,17α-[(1-methylethylidene)bis(oxy)]androsta-1,4-diene-3-one-17β-carboxylate]: the “relative binding affinities (RBA)” value amounted to 0.17.

In the case of `CC(C)OC(=O)OC(C)OC(=O)C12OC(C)(C)OC1CC1C3CC(F)C4=CC(=O)C=CC4(C)C3(F)C(O)CC12C` (single isomer, unassigned) [Example 27, 1'-isopropoxycarbonyloxyethyl 6α,9α-difluoro-11β-hydroxy-16α,17α-[(1-methylethylidene)bis(oxy)]androsta-1,4-diene-3-one-17β-carboxylate], the “relative binding affinities (RBA)” value worked out at 0.50.

Consider `CCC[C@@H]1O[C@@H]2C[C@H]3[C@@H]4CCC5=CC(=O)C=C[C@]5(C)[C@@]4(F)[C@@H](O)C[C@]3(C)[C@]2(C(=O)OC(C)OC(C)=O)O1` (single isomer, unassigned) [Example 55], for which the “relative binding affinities (RBA)” value was 0.20.

Consider `CCC[C@@H]1O[C@@H]2C[C@H]3[C@@H]4CCC5=CC(=O)C=C[C@]5(C)[C@@]4(F)[C@@H](O)C[C@]3(C)[C@]2(C(=O)OC(C)OC(=O)OCC)O1` (single isomer, unassigned) [Example 69], for which the “relative binding affinities (RBA)” value came out at 0.44.

On to `CCC[C@@H]1O[C@@H]2C[C@H]3[C@@H]4C[C@H](F)C5=CC(=O)C=C[C@]5(C)[C@@]4(F)[C@@H](O)C[C@]3(C)[C@]2(C(=O)OC(C)OC(=O)OCC)O1` (single isomer, unassigned) [Example 84], for which the “relative binding affinities (RBA)” value is 1.03.

As for `CCC[C@@H]1O[C@@H]2C[C@H]3[C@@H]4C[C@H](F)C5=CC(=O)C=C[C@]5(C)[C@@]4(F)[C@@H](O)C[C@]3(C)[C@]2(C(=O)OC(C)OC(=O)OC(C)C)O1` (single isomer, unassigned) [Example 87], the “relative binding affinities (RBA)” value is 0.63.

On to `CCOC(=O)OC(C)(C)OC(=O)C12OC(C)(C)OC1CC1C3CC(F)C4=CC(=O)C=CC4(C)C3(F)C(O)CC12C` (stereo not shown) [Example 38], for which the “relative binding affinities (RBA)” value is reported as 0.04.

As to `CCC[C@@H]1O[C@@H]2C[C@H]3[C@@H]4C[C@H](F)C5=CC(=O)C=C[C@]5(C)[C@@]4(F)[C@@H](O)C[C@]3(C)[C@]2(C(=O)OCOC(=O)OCC)O1` [Example 64], the “relative binding affinities (RBA)” value worked out at 0.05.

Regarding `CCC[C@@H]1O[C@@H]2C[C@H]3[C@@H]4CCC5=CC(=O)C=C[C@]5(C)[C@H]4[C@@H](O)C[C@]3(C)[C@]2(C(=O)OC(C)OC(=O)OCC)O1` (stereo partly shown) [Example 67], the “relative binding affinities (RBA)” value is listed as 0.04.
